In patent publication US20250230193A1, “CYCLIC COMPOUND HAVING SELECTIVE KRAS INHIBITORY EFFECT ON HRAS AND NRAS” (CHUGAI SEIYAKU KABUSHIKI KAISHA, priority 2022, published 2025):
Where a SMILES comes first, the peptide text is derived from it. Bridges are numbered along the chain shown (N, C = ends). [ ]: non-standard residue; d: D form. The star is where a group is joined. hPhe(3,5-F2-4-CF3) = N[C@@H](CCc1cc(F)c(C(F)(F)F)c(F)c1)C(=O)O; hPhe(3-Cl-4-CF3) = N[C@@H](CCc1ccc(C(F)(F)F)c(Cl)c1)C(=O)O; NPrPhe(4-CF3) = CCCN[C@@H](Cc1ccc(C(F)(F)F)cc1)C(=O)O; NEtPhe(4-Me) = CCN[C@@H](Cc1ccc(C)cc1)C(=O)O; NMeGly(cPent) = CN[C@H](C(=O)O)C1CCCC1; Pro(4,4-F2) = O=C(O)[C@@H]1CC(F)(F)CN1; NMeD = CN[C@@H](CC(=O)O)C(=O)O; NMeL = CN[C@@H](CC(C)C)C(=O)O; αMeS = C[C@](N)(CO)C(=O)O; Morpholide = C1CN(*)CCO1; NMeA = CN[C@@H](C)C(=O)O; Pyrrolidide = C1CCN(*)C1; Ac5c = NC1(C(=O)O)CCCC1; Aze = O=C(O)[C@@H]1CCN1; Sar = CNCC(=O)O

How the values were obtained:
[1] = molecular target: GDP-bound HRAS wild-type protein (Homo sapiens, UniProt P01112); test: Binding to HRAS by surface plasmon resonance (SPR), Single Cycle Kinetics
[2] = molecular target: GDP-bound NRAS wild-type protein (Homo sapiens, UniProt P01111); test: Binding to NRAS by surface plasmon resonance (SPR), Single Cycle Kinetics
Chain of GDP-bound NRAS wild-type protein (P01111 whole entry): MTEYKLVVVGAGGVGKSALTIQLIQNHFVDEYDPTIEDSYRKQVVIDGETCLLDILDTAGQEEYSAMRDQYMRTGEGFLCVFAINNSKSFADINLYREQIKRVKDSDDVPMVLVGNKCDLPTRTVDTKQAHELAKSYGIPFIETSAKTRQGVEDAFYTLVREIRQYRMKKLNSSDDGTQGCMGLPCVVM

Chain of GDP-bound HRAS wild-type protein (P01112 whole entry): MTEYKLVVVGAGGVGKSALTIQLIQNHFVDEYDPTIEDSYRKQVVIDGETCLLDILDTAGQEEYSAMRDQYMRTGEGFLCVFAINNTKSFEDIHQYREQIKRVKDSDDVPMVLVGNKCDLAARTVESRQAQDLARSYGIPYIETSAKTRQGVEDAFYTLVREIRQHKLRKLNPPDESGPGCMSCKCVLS

CC[C@H](C)[C@@H]1NC(=O)[C@H](C)N(C)C(=O)C[C@@H](C(=O)N2CCOCC2)N(C)C(=O)[C@H](C2CCCC2)N(C)C(=O)C2(CCCC2)NC(=O)[C@@H]2CCCN2C(=O)[C@H](CCc2ccc(C(F)(F)F)c(Cl)c2)NC(=O)CN(C)C(=O)[C@H](Cc2ccc(C)cc2)N(CC)C(=O)CN(C)C(=O)CN(C)C1=O [PP0031] ([NMeA]I[Sar][Sar][NEtPhe(4-Me)][Sar][hPhe(3-Cl-4-CF3)]P[Ac5c][NMeGly(cPent)][NMeD]-Morpholide; lactam N-11)
HRAS/KRAS (ratio of KD for GDP-bound HRAS wild-type to KD for KRAS) ([1]; SPR): C (A compound having a KD ratio of 0.1 or more and less than 3 is denoted as C) | NRAS/KRAS (ratio of KD for GDP-bound NRAS wild-type to KD for KRAS) ([2]; SPR): B (a compound having 3 or more and less than 10 is denoted as B)

CCCN1C(=O)[C@@H]2CCN2C(=O)CN(C)C(=O)[C@H]([C@@H](C)CC)NC(=O)[C@H](CC(C)C)N(C)C(=O)C[C@@H](C(=O)N2CCOCC2)NC(=O)[C@H](C2CCCC2)N(C)C(=O)C2(CCCC2)NC(=O)[C@@H]2CC(F)(F)CN2C(=O)[C@H](CCc2ccc(C(F)(F)F)c(Cl)c2)NC(=O)CN(C)C(=O)[C@@H]1Cc1ccc(C(F)(F)F)cc1 [PP0351] ([NMeL]I[Sar][Aze][NPrPhe(4-CF3)][Sar][hPhe(3-Cl-4-CF3)][Pro(4,4-F2)][Ac5c][NMeGly(cPent)]D-Morpholide; lactam N-11)
HRAS/KRAS (ratio of KD for GDP-bound HRAS wild-type to KD for KRAS) ([1]; SPR): B (a compound having 3 or more and less than 10 is denoted as B) | NRAS/KRAS (ratio of KD for GDP-bound NRAS wild-type to KD for KRAS) ([2]; SPR): C (A compound having a KD ratio of 0.1 or more and less than 3 is denoted as C)

CCOC[C@H]1C(=O)N[C@@H]([C@@H](C)CC)C(=O)N(C)CC(=O)N(C)[C@H]2C/C=C\CCN(C2=O)[C@@H](Cc2ccc(C(F)(F)F)cc2)C(=O)N(C)CC(=O)N[C@@H](CCc2cc(F)c(C(F)(F)F)c(F)c2)C(=O)N2C[C@H](OCC)C[C@H]2C(=O)NC2(CC(C)(C)C2)C(=O)N(C)[C@@H](CC(C)(C)C)C(=O)N(C)[C@H](C(=O)N(C)C)CC(=O)N1C [PP2732]
HRAS/KRAS (ratio of KD value with respect to GDP-bound HRAS wild-type protein to KD value with respect to KRAS) ([1]; class symbols): A (a compound having 10 or more and less than 20 is denoted as A) | NRAS/KRAS (ratio of KD value with respect to GDP-bound NRAS wild-type protein to KD value with respect to KRAS) ([2]; class symbols): A (a compound having 10 or more and less than 20 is denoted as A)

CCO[C@@H]1C[C@H]2C(=O)NC3(CCC3)C(=O)N(C)[C@@H](C3CCCC3)C(=O)N(C)[C@H](C(=O)N(C)C)CC(=O)N(C)[C@@H](CC3CCC3)C(=O)N[C@@H]([C@@H](C)CC)C(=O)N(C)CC(=O)N(C)[C@H]3CCCCCN(C3=O)[C@@H](Cc3ccc(C(F)(F)F)cc3)C(=O)N(C)CC(=O)N[C@@H](CCc3cc(F)c(C(F)(F)F)c(F)c3)C(=O)N2C1 [PP0668]
HRAS/KRAS (ratio of KD value with respect to GDP-bound HRAS wild-type protein to KD value with respect to KRAS) ([1]; SPR): B (a compound having 3 or more and less than 10 is denoted as B) | NRAS/KRAS (ratio of KD value with respect to GDP-bound NRAS wild-type protein to KD value with respect to KRAS) ([2]; SPR): B (a compound having 3 or more and less than 10 is denoted as B)

CCCN1C(=O)CN(C)C(=O)CN(C)C(=O)[C@H]([C@@H](C)CC)NC(=O)[C@H](CC(C)C)N(C)C(=O)C[C@@H](C(=O)N(C)C)N(C)C(=O)[C@H](C2CCCC2)N(C)C(=O)[C@](C)(COC)NC(=O)[C@@H]2CCCN2C(=O)[C@H](CCc2cc(F)c(C(F)(F)F)c(F)c2)NC(=O)CN(C)C(=O)[C@@H]1Cc1ccc(C(F)(F)F)cc1 [PP0741] ([NMeL]I[Sar][Sar][NPrPhe(4-CF3)][Sar][hPhe(3,5-F2-4-CF3)]P[αMeS](Me)[NMeGly(cPent)][NMeD]-NMe2; lactam N-11)
HRAS/KRAS (ratio of KD value with respect to GDP-bound HRAS wild-type protein to KD value with respect to KRAS) ([1]; SPR): B (a compound having 3 or more and less than 10 is denoted as B) | NRAS/KRAS (ratio of KD value with respect to GDP-bound NRAS wild-type protein to KD value with respect to KRAS) ([2]; SPR): B (a compound having 3 or more and less than 10 is denoted as B)

CCCN1C(=O)CN(C)C(=O)CN(C)C(=O)[C@H]([C@@H](C)CC)NC(=O)[C@H](CC(C)C)N(C)C(=O)C[C@@H](C(=O)N2CCCC2)N(C)C(=O)[C@H](C2CCCC2)N(C)C(=O)C2(CCCC2)NC(=O)[C@@H]2CCCN2C(=O)[C@H](CCc2ccc(C(F)(F)F)c(Cl)c2)NC(=O)CN(C)C(=O)[C@@H]1Cc1ccc(C(F)(F)F)cc1 [PP0170] ([NMeL]I[Sar][Sar][NPrPhe(4-CF3)][Sar][hPhe(3-Cl-4-CF3)]P[Ac5c][NMeGly(cPent)][NMeD]-Pyrrolidide; lactam N-11)
HRAS/KRAS (ratio of KD for GDP-bound HRAS wild-type to KD for KRAS) ([1]; SPR): B (a compound having 3 or more and less than 10 is denoted as B) | NRAS/KRAS (ratio of KD for GDP-bound NRAS wild-type to KD for KRAS) ([2]; SPR): B (a compound having 3 or more and less than 10 is denoted as B)

CCO[C@@H]1C[C@H]2C(=O)NC3(CC(C)(C)C3)C(=O)N(C)[C@@H](C(CC)CC)C(=O)N(C)[C@H](C(=O)N(C)C)CC(=O)N(C)[C@@H](CC3CCC3)C(=O)N[C@@H]([C@@H](C)CC)C(=O)N(C)CC(=O)N(C)[C@H]3C/C=C\CCN(C3=O)[C@@H](Cc3ccc(C(F)(F)F)cc3)C(=O)N(C)CC(=O)N[C@@H](CCc3cc(F)c(C(F)(F)F)c(F)c3)C(=O)N2C1 [PP2133]
HRAS/KRAS (ratio of KD value with respect to HRAS to KD value with respect to KRAS) ([1]; SPR, GDP-bound HRAS wild-type vs GDP-bound KRAS wild-type): A (a compound having 10 or more and less than 20 is denoted as A) | NRAS/KRAS (ratio of KD value with respect to NRAS to KD value with respect to KRAS) ([2]; SPR, GDP-bound NRAS wild-type vs GDP-bound KRAS wild-type): AA (a compound having 20 or more is denoted as AA)
